One compound from US9757327B2, “Abutilon indicum extracts and methods of use” (Avon Products, Inc., priority 2013, dated 2017) can be followed below.

The assay has as its system dorsal forearm skin of healthy female Caucasian subjects. The assay is described as follows: In vivo biopsy (histology after 3 week patch treatment). More on the design: species or system human. The conditions noted are these: 3 weeks semi-occlusion patch, 2 mg/cm^2, extract 0.33% active, retinol 0.05% active. The procedure: Healthy female Caucasian subjects aged 30-65, with skin type II or III and mild to moderate photo damage, were treated on the dorsal forearm for 3 weeks (3 consecutive rounds of 5×24 hour) under semi-occlusion patches. Test articles including active ingredients, vehicle controls, and retinol were applied in a randomized allocation on 6 sites on each forearm. The application dose was 2 mg/cm^2. After 3 week treatment, a 2 mm punch biopsy was obtained from each treatment site and fixed in 10% buffered formalin. Tissue samples then embedded in paraffin, sectioned (5 μm thickness), and stained for skin markers after re-hydration. […] Retinol at a active concentration of 0.05% was used as a positive control. Retinol use at a 0.05% active concentration in the semi-occlusion patch vehicle formulation yielded a visual score of approximately 0.56 out of a 4 point scale in HE staining (measuring hematoxylin and eosin staining, an indication of viable epidermal thickness and health) with 63.6% of the subjects showing an improvement; a visual score of 0.6 out of a 4 point scale in M-TC staining (Masson's trichrome staining, assessing total mature fiber-forming collagen in the dermis—mainly Collagen I, […] and Collagen V) with 51.6% of the subjects showing an improvement; a visual score of 0.52 out of a 4 point scale for pro-Col (measuring new synthesis of Collagen I by skin fibroblasts in the dermis) with 51.6% of the subjects showing an improvement; and a visual score of 0.57 out of a 4 point scale for HA (measuring level of hyaluronic acid in both dermis and epidermis) with 50% of the subjects showing an improvement.

On to `CC1=C(/C=C/C(C)=C/C=C/C(C)=C/CO)C(C)(C)CCC1` [Retinol], for which the “subjects showing an improvement, HA” value is 50 % of the subjects; the “subjects showing an improvement, HE staining” value was 63.6 % of the subjects; the “subjects showing an improvement, M-TC staining” value is reported as 51.6 % of the subjects; the “subjects showing an improvement, pro-Col” value is listed as 51.6 % of the subjects. Moreover, for the setting “out of a 4 point scale”, the “visual score for HA (hyaluronic acid in dermis and epidermis)” value came out at 0.57; the “visual score for pro-Col (new synthesis of Collagen I)” value is 0.52; the “visual score in HE staining (viable epidermal thickness and health)” value is “approximately 0.56”; the “visual score in M-TC staining (total mature fiber-forming collagen in the dermis)” value worked out at 0.6.
